Results taken from patent US20210205291A1, “NITROGENOUS HETEROCYCLIC AMIDE DERIVATIVE, PREPARATION METHOD THEREOF, AND PHARMACEUTICAL APPLICATION” (Sichuan Haisco Pharmaceutical Co., Ltd., priority 2016, published 2021).

Legend:
[1] = biological target: human muscarine receptor M3 (Homo sapiens, UniProt P20309); assay: Inhibitory activity against human muscarine receptor M3 (aequorin luminescence in CHO cells, acetylcholine challenge); type: cell-based; details: CHO cells expressing hM3 and apo-Aequorin; acetylcholine chloride 112.92 nM
Method: CHO cells (PerkinElmer, ES-212-AF) that stably express human muscarine receptor 3 (hM3) and apo-Aequorin were cultured at 37° C. 5% CO2 in Ham's F12 media (Invitrogen 12500-062) containing 10% fetal bovine serum (FBS) (Gibico 10099-141), 400 μg/mL G418 (sigma G5013) and 250 μg/mL Zeocin (Invivogen ant-zn-5p), until a confluency of 90% to 100% was reached. Cells were separated by rinsing with PBS/5 mM EDTA, collected by centrifugation, re-suspended in phenol red-free Ham's F12 media (Invitrogen 12500-062) containing 0.1% BSA (BOVOGEN BSAS 100), and counted. The cell concentration was adjusted to 1×10^6 cells/ml. 15 ml of the cell suspension was added to a 50-ml centrifuge tube, to which Coelenterazine-h (Promega S2011) was added to a final concentration of 5 μM. The tube was wrapped with a tin foil to shade light, and incubated on a rotary shaker at 20° C. for 4 hours. The cells were diluted with a phenol red-free/0.1% BSA Ham's F12 medium to a final concentration of 5.0/10^5 cells/ml, placed on a rotary shaker in low-speed rotation, and incubated at room temperature for at least 1 hour. The compounds of the Examples were formulated with DMSO into 10 mM stock solutions, diluted in series with a phenol red-free/0.1% BSAHam's F12 medium (log(M): −7, −8, −9, −10, −11), and added to a 96-well plate at 50 μl/well. 50 μl cell suspension was further added to each well (25,000 cells/well) and incubated for 15 min at room temperature. The 96-well plate was placed under a microplate reader (Perkin Elmer, Envision), and a 50 μl solution of acetylcholine chloride (Sigma A6625) was added to each well at a concentration of 112.92 nM (hM3) with a microplate reader sample injector. The luminescence was recorded over 20 seconds, and IC50 values were calculated and analyzed by Origin 7.5.

[2] = test system: methacholine-induced bronchoconstriction in guinea pigs; assay: Inhibition against methacholine-induced bronchoconstriction in guinea pigs (PenH, whole-body plethysmograph); type: in vivo; details: intratracheal, 0.3 nmol per animal, 3 mg/ml methacholine; for PenH Inhibition (%) 4 h: 4 h after administration; for PenH Inhibition (%) 24 h: 24 h after administration
Method: 8-week-old guinea pigs (all male) were purchased from Vital River Laboratory Animal Technology Co., Ltd., and adapted for 3 days before the experiments were started. The test compounds were formulated into 0.6 mM stock solutions with 83% dry ethanol+17% Tween80, which were diluted 500 times before administration. Before administration, the animals were anesthetized with 5% isoflurane by using a small-animal anesthetic apparatus (Matrx: VME2), wherein the anesthetic duration was 1.5 to 2 min. The anesthetized guinea pigs were fixed on a tracheal cannula platform, and intratracheally administrated with the compounds at 250 μl/animal by using a rat liquid-aerosol administration kit (penn-century; MSA-250-R). 4 hours and 24 hours after administration, the enhanced pauses (PenH) of the guinea pigs were measured in a whole-body plethysmograph (DSI; GS220A12-R7B). 3 mg/ml methacholine (Mch) was administrated by nebulization for 36 sec, and data was recorded over 7 min. The average of PenH was calculated (see J Pharmacol Exp Ther 345:260-270).
PenH calculation formula: PenH=PEP/PIP*Pause; Pause=(Te−Tr)/Tr
Te: Duration of expiratory phase (s)
Tr: Duration of relaxation phase (s)
PEP: Expiratory peak flow rate (ml/s)
PIP: Inspiratory peak flow rate (ml/s)

[3] = biological target: human β2-adrenergic receptor (Homo sapiens, UniProt P07550); assay: Agonistic activity on human β2-adrenergic receptor (LANCE Ultra cAMP Assay in CHO cells); type: cell-based; details: CHO cells expressing hβ2; cAMP TR-FRET
Method: The agonistic activity of the compounds of the Examples on the human adrenergic receptor was measured by the LANCE Ultra cAMP Assay.
CHO cells (PerkinElmer, ES-034-AF) that stably express human adrenergic receptor (hβ2) were cultured at 37° C. 5% CO2 in MEM-alpha media (Invitrogen 12561-056) containing 10% fetal bovine serum (FBS) (Gibico 10099-141) and 250 μg/ml Zeocin (InvivoGen ant-zn-5p), until a confluency of 90% to 100% was reached. Then the agonism on cAMP was tested by using a LANCE Ultra cAMP Assay kit (PerkinElmer TRF0263). Cells were separated with PBS/5 mM EDTA, collected by centrifugation, re-suspended in Stimulation Buffer (1×HBSS, 5 mM HEPES, 0.5 mM IBMX, 0.1% BSA, pH=7.4), and adjusted to a cell concentration of 6×10^5 cells/ml. The compounds of the Examples were formulated with DMSO into 10 mM stock solutions, diluted in series with Stimulation Buffer, and added to a 384-well plate at 5 μl/well. 5 μl cell suspension was further added to each well (3,000 cells/well), incubated for 30 min at room temperature, then 5 μl of a 4×Eu-cAMP trace working solution was added to each well, and then 5 μl of a 4×Ulight-anti-cAMP working solution was added to each well, followed by incubation at room temperature for 1 hour. The 384-well plate was detected for TR-FRET under a microplate reader (Perkin Elmer, Envision), and EC50 values were calculated and analyzed by Origin 7.5.

[4] = Pharmacokinetic evaluation in SD rats; type: in vivo
Method: 18 male SD rats, eight weeks old, were purchased from Vital River Laboratory Animal Technology Co., Ltd., and adapted for 3 days before the experiments were started. The SD rats were randomized into 3 groups, fasted one day before administration but allowed access to water. The 3 groups of animals were administrated with 1 mg/kg compound either by tail vein injection (iv) or by intratracheal (it) administration. The compounds were formulated into 20 mg/ml stock solutions with 83% ethanol and 17% Tween80. For intravenous injection, 0.1 ml of the stock solution was diluted to the final volume with 9.9 ml physiological saline. For intratracheal administration, 0.25 ml of the stock solution was diluted with 4.75 ml physiological saline to the final volume. For the group for intravenous injection, right before administration (0 h) and 5 min, 15 min, 30 min, 1.0, 2.0, 4.0, 8.0, 24.0 h after administration, 0.1 ml blood was taken from the orbit, heparin was added for anticoagulation, and plasma was separated after centrifugation at 4° C., 3000 rpm for 10 min and stored at −80° C. before testing. For the group for intratracheal administration, right before administration and 5 min, 15 min, 30 min, 1.0, 2.0, 4.0, 8.0, 24.0 h after administration, blood was taken and treated the same way as for the group for intravenous injection. 30 μl plasma of rat at each of the time points was mixed with 200 μl acetonitrile solution containing an internal standard, vortexed for 1 min, and centrifuged at 11300 rpm for 10 min, and 175 μl of the supernatant was added to a 96-well plated for LC-MS/MS analysis. The major pharmacokinetic parameters were analyzed using the software WinNonlin 6.3 at the non-compartment mode.

[5] = Sprague-Dawley (SD), rat, inhaled or intranasal, male SD rats, it (intratracheal), 1 mg/kg, plasma
[6] = Sprague-Dawley (SD), rat, male SD rats, iv (tail vein), 1 mg/kg, plasma

human muscarine receptor M3, sequence (P20309 whole entry): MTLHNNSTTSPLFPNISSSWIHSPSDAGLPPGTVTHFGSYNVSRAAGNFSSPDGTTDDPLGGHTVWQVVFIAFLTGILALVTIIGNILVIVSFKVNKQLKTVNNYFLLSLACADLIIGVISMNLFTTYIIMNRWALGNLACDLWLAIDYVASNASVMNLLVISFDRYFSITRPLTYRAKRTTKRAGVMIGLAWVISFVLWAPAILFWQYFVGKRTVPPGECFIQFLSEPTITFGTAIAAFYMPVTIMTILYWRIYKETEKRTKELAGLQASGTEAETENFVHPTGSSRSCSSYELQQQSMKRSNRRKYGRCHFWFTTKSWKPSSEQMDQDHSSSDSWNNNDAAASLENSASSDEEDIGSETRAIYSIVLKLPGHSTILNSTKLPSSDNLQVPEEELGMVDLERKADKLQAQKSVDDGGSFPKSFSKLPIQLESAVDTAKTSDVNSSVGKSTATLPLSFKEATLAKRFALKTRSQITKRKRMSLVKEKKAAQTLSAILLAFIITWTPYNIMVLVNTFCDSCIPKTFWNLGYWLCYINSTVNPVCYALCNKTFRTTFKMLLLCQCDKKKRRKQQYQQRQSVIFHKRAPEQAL
human β2-adrenergic receptor, sequence (P07550 whole entry): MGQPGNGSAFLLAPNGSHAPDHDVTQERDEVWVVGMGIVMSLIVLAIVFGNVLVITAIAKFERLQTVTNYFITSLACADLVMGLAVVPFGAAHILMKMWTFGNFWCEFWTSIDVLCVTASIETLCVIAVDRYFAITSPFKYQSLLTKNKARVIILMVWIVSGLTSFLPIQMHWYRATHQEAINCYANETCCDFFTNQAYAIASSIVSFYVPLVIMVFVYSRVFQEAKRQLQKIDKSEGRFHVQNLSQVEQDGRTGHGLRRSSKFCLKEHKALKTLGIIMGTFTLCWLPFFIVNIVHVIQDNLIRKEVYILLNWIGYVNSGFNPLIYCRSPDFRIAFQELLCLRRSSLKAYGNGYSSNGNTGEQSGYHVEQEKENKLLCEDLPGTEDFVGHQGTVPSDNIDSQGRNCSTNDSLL

| SMILES | IC50 [1] [nM] | PenH Inhibition (%) 4 h [2] [%] | PenH Inhibition (%) 24 h [2] [%] | EC50 [3] [nM] | further results |
| --- | --- | --- | --- | --- | --- |
| COc1cc(NC(=O)OC[C@H]2CCN(C(=O)CCN3CCC(OC(=O)Nc4ccccc4-c4ccccc4)CC3)C2)c(Cl)cc1CNC[C@H](O)c1ccc(O)c2[nH]c(=O)ccc12 [Compound 5, [(3S)-1-[3-[4-[(2-phenylphenyl)carbamoyloxy]-1-piperidyl]propanoyl]pyrrolidin-3-yl]methyl N-[2-chloro-4-[[[(2R)-2-hydroxy-2-(8-hydroxy-2-oxo-1H-quinolin-5-yl)ethyl]amino]methyl]-5-methoxy-phenyl]carbamate; ditrifluoroacetic acid] | 0.89 | 96.4 | 78.6 |  |  |
| COc1cc(NC(=O)OCC2CCN(C(=O)CCN3CCC(OC(=O)Nc4ccccc4-c4ccccc4)CC3)CC2)c(Cl)cc1CNC[C@H](O)c1ccc(O)c2[nH]c(=O)ccc12 [Compound 3, [1-[3-[4-[(2-phenylphenyl)carbamoyloxy]-1-piperidyl]propanoyl]-4-piperidyl]methyl N-[2-chloro-4-[[[(2R)-2-hydroxy-2-(8-hydroxy-2-oxo-1H-quinolin-5-yl)ethyl]amino]methyl]-5-methoxy-phenyl]carbamate; di(2,2,2-trifluoroacetic acid)] | 3.76 |  |  | 10.2 |  |
| O=C(Nc1ccc(CNC[C@H](O)c2ccc(O)c3[nH]c(=O)ccc23)cc1F)OCC1CCN(C(=O)CCN2CCC(OC(=O)Nc3ccccc3-c3ccccc3)CC2)CC1 [Compound 7, [1-[3-[4-[(2-phenylphenyl)carbamoyloxy]-1-piperidyl]propanoyl]-4-piperidyl]methyl N-[2-fluoro-4-[[[(2R)-2-hydroxy-2-(8-hydroxy-2-oxo-1H-quinolin-5-yl)ethyl]amino]methyl]phenyl]carbamate; ditrifluoroacetic acid] | 1.31 | 72.1 | 55.8 | 6.01 |  |
| O=C(Nc1ccc(CNC[C@H](O)c2ccc(O)c3[nH]c(=O)ccc23)c(F)c1)OCC1CCN(C(=O)CCN2CCC(OC(=O)Nc3ccccc3-c3ccccc3)CC2)CC1 [Compound 8, [1-[3-[4-[(2-phenylphenyl)carbamoyloxy]-1-piperidyl]propanoyl]-4-piperidyl]methyl N-[3-fluoro-4-[[[(2R)-2-hydroxy-2-(8-hydroxy-2-oxo-1H-quinolin-5-yl)ethyl]amino]methyl]phenyl]carbamate; ditrifluoroacetic acid] | 3.33 | 78.2 | 45.3 | 3.34 |  |
| O=C(Nc1ccc(CNC[C@H](O)c2ccc(O)c3[nH]c(=O)ccc23)cc1)OCC1CCN(C(=O)CCN2CCC(OC(=O)Nc3ccccc3-c3ccccc3)CC2)CC1 [Compound 2, [1-[3-[4-[(2-phenylphenyl)carbamoyloxy]-1-piperidyl]propanoyl]-4-piperidyl]methyl N-[4-[[[(2R)-2-hydroxy-2-(8-hydroxy-2-oxo-1H-quinolin-5-yl)ethyl]amino]methyl]phenyl]carbamate; ditrifluoroacetic acid] | 1.69 | 94.8 | 53.8 | 1.85 | AUC(0-inf) [4, 5]: 0.0116 µg·h/mL; Cmax [4, 5]: 7.08 ng/mL; Tmax [4, 5]: 34.8 min; half-life [4, 5]: 45 min; AUC(0-inf) [4, 6]: 0.00927 µg·h/mL; half-life [4, 6]: 27.6 min; in vivo exposure level ([4]; after iv and it administrations, rats, in words): low in vivo exposure level |
| O=C(Nc1ccccc1-c1ccccc1)OC1CCN(CCC(=O)N2CCC(C(=O)Nc3ccc(CNC[C@H](O)c4ccc(O)c5[nH]c(=O)ccc45)cc3)CC2)CC1 [Compound 1, [1-[3-[4-[[4-[[[(2R)-2-hydroxy-2-(8-hydroxy-2-oxo-1H-quinolin-5-yl)ethyl]amino]methyl]phenyl]carbamoyl]-1-piperidyl]-3-oxo-propyl]-4-piperidyl]N-(2-phenylphenyl)carbamate; ditrifluoroacetic acid] | 14.4 |  |  |  |  |
| COc1cc(NC(=O)OC[C@@H]2CCN(C(=O)CCN3CCC(OC(=O)Nc4ccccc4-c4ccccc4)CC3)C2)c(Cl)cc1CNC[C@H](O)c1ccc(O)c2[nH]c(=O)ccc12 [Compound 4, [(3R)-1-[3-[4-[(2-phenylphenyl)carbamoyloxy]-1-piperidyl]propanoyl]pyrrolidin-3-yl]methyl N-[2-chloro-4-[[[(2R)-2-hydroxy-2-(8-hydroxy-2-oxo-1H-quinolin-5-yl)ethyl]amino]methyl]-5-methoxy-phenyl]carbamate; di(2,2,2-trifluoro)acetic acid] | 2.26 |  |  |  |  |
| CN(CCNC[C@H](O)c1ccc(O)c2[nH]c(=O)ccc12)C(=O)C1CCN(C(=O)CCN2CCC(OC(=O)Nc3ccccc3-c3ccccc3)CC2)CC1 [Compound 6, [1-[3-[4-[2-[[(2R)-2-hydroxy-2-(8-hydroxy-2-oxo-1H-quinolin-5-yl)ethyl]amino]ethyl-methyl-carbamoyl]-1-piperidyl]-3-oxo-propyl]-4-piperidyl]N-(2-phenylphenyl)carba mate; ditrifluoroacetic acid] | 6.49 |  |  | 17.4 |  |
| O=C(CC1CCN(C(=O)CCN2CCC(OC(=O)Nc3ccccc3-c3ccccc3)CC2)CC1)Nc1ccc(CNC[C@H](O)c2ccc(O)c3[nH]c(=O)ccc23)cc1 [Compound 9, [1-[3-[4-[2-[4-[[[(2R)-2-hydroxy-2-(8-hydroxy-2-oxo-1H-quinolin-5-yl)ethyl]amino]methyl]anilino]-2-oxo-ethyl]-1-piperidyl]-3-oxo-propyl]-4-piperidyl]N-(2-phenylphenyl)carbamate; di(trifluoroacetic acid)] | 3.73 |  |  | 3.96 |  |
